Test: molar heat capacity at saturation pressure
Details: Liquid, Vacuum adiabatic calorimetry

CCC [propane]
Details | molar heat capacity [J/K/mol]
88.92 K | 84.87
91.12 K | 84.92
92.73 K | 84.92
94.89 K | 85.02
96.47 K | 84.96
98.58 K | 85.12
100.13 K | 85.19
102.21 K | 85.32
103.73 K | 85.36
105.78 K | 85.44
107.27 K | 85.47
109.28 K | 85.76
110.76 K | 85.79
112.74 K | 85.84
114.19 K | 85.97
116.15 K | 86.05
117.58 K | 86.14
119.51 K | 86.16
120.93 K | 86.45
122.83 K | 86.51
124.23 K | 86.53
126.12 K | 86.66
127.5 K | 86.9
129.36 K | 86.88
130.73 K | 87.09
132.57 K | 87.07
133.93 K | 87.31
135.75 K | 87.22
137.1 K | 87.67
138.9 K | 87.5
140.23 K | 87.61
142.01 K | 87.94
143.34 K | 87.91
145.1 K | 88.06
146.41 K | 88.35
148.16 K | 88.33
149.46 K | 88.44
151.2 K | 88.72
152.48 K | 88.71
154.21 K | 88.83
155.47 K | 89
157.2 K | 89.06
158.45 K | 89.26
160.15 K | 89.66
161.4 K | 89.43
163.09 K | 90.05
164.34 K | 89.53
166 K | 90.04
167.25 K | 90.06
168.9 K | 90.24
170.14 K | 90.37
171.79 K | 90.38
173.01 K | 90.28
174.65 K | 90.89
175.86 K | 90.91
177.49 K | 91.25
178.7 K | 91.17
180.31 K | 91.67
181.51 K | 91.3
183.12 K | 91.84
184.31 K | 91.75
185.91 K | 92.02
187.09 K | 92.23
188.68 K | 92.09
189.85 K | 92.57
191.44 K | 92.72
192.61 K | 92.88
194.18 K | 93.05
195.34 K | 93.67
196.91 K | 93.56
198.06 K | 93.95
199.62 K | 94.02
200.76 K | 94.12
202.32 K | 94.07
203.45 K | 94.68
205.01 K | 94.36
206.14 K | 94.22
207.69 K | 94.92
208.8 K | 94.54
210.35 K | 95.41
211.45 K | 95.58
213 K | 96.05
214.1 K | 96.24
215.65 K | 96.38
216.73 K | 96.69
218.28 K | 97.14
219.35 K | 97.4
220.9 K | 96.94
221.97 K | 97.43
223.51 K | 97.28
224.57 K | 97.58
226.12 K | 98.17
227.16 K | 98.39
228.72 K | 98.66
229.75 K | 98.99
231.31 K | 99.11
232.33 K | 99.49
233.9 K | 99.63
234.9 K | 99.41
236.47 K | 99.64
237.46 K | 100.12
239.04 K | 100.21
240.02 K | 100.5
241.61 K | 100.94
242.57 K | 101.2
244.17 K | 101.8
245.12 K | 101.78
246.72 K | 102.66
247.66 K | 102.27
249.28 K | 103.18
250.2 K | 102.98
251.83 K | 103.62
252.74 K | 103.41
254.37 K | 104.07
255.27 K | 103.99
256.92 K | 104.47
257.8 K | 104.55
259.46 K | 104.97
260.32 K | 105.39
262 K | 106
262.85 K | 106.36
264.54 K | 106.11
265.38 K | 106.45
267.08 K | 107.17
267.9 K | 107.71
267.92 K | 107.58
269.62 K | 107.64
270.42 K | 108.4
270.71 K | 108.16
271.49 K | 109.25
272.15 K | 109.03
272.92 K | 109.16
273.04 K | 108.7
273.85 K | 109.09
274.7 K | 109.64
275.38 K | 109.29
275.42 K | 110.08
276.2 K | 109.72
277.24 K | 110.22
277.72 K | 110.44
277.92 K | 110.44
278.57 K | 110.68
279.78 K | 110.83
280.07 K | 110.92
280.41 K | 111.44
280.93 K | 111.66
282.32 K | 111.64
282.41 K | 112.19
282.91 K | 112.06
283.3 K | 112.78
284.77 K | 113.05
284.86 K | 112.93
285.41 K | 112.26
285.68 K | 112.86
287.13 K | 113.09
287.41 K | 113.95
287.91 K | 113.12
288.05 K | 113.08
289.5 K | 114.17
289.95 K | 114.64
290.41 K | 114.75
290.43 K | 114.57
291.86 K | 114.95
292.5 K | 115.46
292.81 K | 115.77
292.93 K | 115.51
294.24 K | 115.29
295.04 K | 116.36
295.21 K | 116
295.44 K | 116.88
296.61 K | 116.56
297.59 K | 117.55
297.6 K | 116.98
297.96 K | 117.85
298.99 K | 117.8
300 K | 118.27
300.14 K | 118.94
300.48 K | 117.96
301.38 K | 118.85
302.4 K | 119.55
302.69 K | 119.67
303.01 K | 118.38
303.77 K | 119.3
304.81 K | 120.27
305.25 K | 120.48
305.54 K | 119.64
306.16 K | 120.81
307.23 K | 121.32
307.82 K | 121.03
308.07 K | 121.52
308.57 K | 122.04
309.65 K | 121.95
310.38 K | 122.63
310.62 K | 122.47
310.98 K | 123.64
312.07 K | 123.46
312.95 K | 123.93
313.15 K | 124.63
313.4 K | 124.69
314.51 K | 124.14
315.53 K | 124.76
315.71 K | 125.89
315.83 K | 124.99
318.12 K | 125.37
318.27 K | 126.41
323.24 K | 129.01
323.35 K | 129.31
325.84 K | 130.18
325.93 K | 131.3
328.44 K | 132.33
328.51 K | 133.4
331.06 K | 135.04
331.1 K | 135.99
333.69 K | 136.44
333.7 K | 137.68
336.31 K | 139.1
336.32 K | 139.03
338.93 K | 140.95
338.96 K | 142.73
341.56 K | 144.64
341.61 K | 145.97
344.21 K | 149.14
344.27 K | 148.36

Source: the NIST ThermoML archive (doi:10.1021/je900137r)
